pKi: −log10 of the molar value. Where a name gives a salt, the structure may show the parent alone.
Tests used:
[1] = biological target: T1, tissue plasminogen activator (tPA) (Homo sapiens, UniProt P00750); assay: tPA inhibition constant (Ki), fluorogenic substrate assay; format: biochemical
T1 construct: purchased Sigma
Method: The activity and selectivity of the present invention can be identified by determination of the inhibition constant (Ki) for serine proteases such thrombin and trypsin and fibrinolytic enzymes such as urokinase, plasmin and tissue plasminogen activator (tPA). All of enzymes are purchased from Sigma. The general assay conditions are as follows. The fluorogenic substrates are dissolved in DMSO and diluted using assay buffer containing 50 mM Tris.HCl (pH 7.8 at 25° C.), 0.1 M NaCl and 0.1% polyethylene glycol 8000 (PEG 8000). […] The assays were conducted using Hitachi F2500 spectrophotometer under ambient temperature and at the excitation and emission wavelengths of 383 nm and 455 nm, respectively. The typical progressive data of the enzymatic assays are shown in FIGS. 1-3, and the determination of inhibition constant (Ki) is shown in FIG. 4.

ICR mice = assay: Clotting time (CT) of mice whole blood after administration; format: in vivo
Method: Blood samples were collected using the capillary method 0.5 h and 1.5 h after i.v. injections and 1 h and 3 h after i.g. and clotting time of whole blood was measured.

SD rats [2] = assay: Weight of deep vein thrombosis (inferior vena cava thrombi) in rats; format: in vivo, rat; conditions: for Thrombi (mg) Dry weight / Thrombi (mg) Wet weight: 4 hours
Method: The drug was administered immediately after operation and, 4 hours later, the thrombi were collected and weighted.

SD rats [3] = assay: Acute myocardial infarction by coronary artery ligation in rats; format: in vivo, rat; conditions: for CK (u/ml) / LDH (u/ml): serum;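 as to CK (u/ml): blood collected at end of 6 h (i.v.) or 8 h (intraduodenal) ECG observation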;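 as to LDH (u/ml): blood collected at end of 6 h (i.v.) or 8 h (intraduodenal) ECG observation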
Method: The drugs were administered 8 to 10 min after the coronary artery was ligated.

[4] = 0.125 mg/kg i.v., 0 min after ligation (before drug)
[5] = 0.125 mg/kg i.v., 10 min after ligation
[6] = 0.125 mg/kg i.v., 30 min after ligation
[7] = 0.125 mg/kg i.v., 6 h after ligation
[8] = 0.25 mg/kg i.v., 0 min after ligation (before drug)
[9] = 0.25 mg/kg i.v., 10 min after ligation
[10] = 0.25 mg/kg i.v., 30 min after ligation
[11] = 0.25 mg/kg i.v., 6 h after ligation
[12] = 75 mg/kg intraduodenum, 0 min after ligation (before drug)
[13] = 75 mg/kg intraduodenum, 10 min after ligation
[14] = 75 mg/kg intraduodenum, 30 min after ligation
[15] = 75 mg/kg intraduodenum, 6 h after ligation

T1 sequence (P00750 36-562, species assumed): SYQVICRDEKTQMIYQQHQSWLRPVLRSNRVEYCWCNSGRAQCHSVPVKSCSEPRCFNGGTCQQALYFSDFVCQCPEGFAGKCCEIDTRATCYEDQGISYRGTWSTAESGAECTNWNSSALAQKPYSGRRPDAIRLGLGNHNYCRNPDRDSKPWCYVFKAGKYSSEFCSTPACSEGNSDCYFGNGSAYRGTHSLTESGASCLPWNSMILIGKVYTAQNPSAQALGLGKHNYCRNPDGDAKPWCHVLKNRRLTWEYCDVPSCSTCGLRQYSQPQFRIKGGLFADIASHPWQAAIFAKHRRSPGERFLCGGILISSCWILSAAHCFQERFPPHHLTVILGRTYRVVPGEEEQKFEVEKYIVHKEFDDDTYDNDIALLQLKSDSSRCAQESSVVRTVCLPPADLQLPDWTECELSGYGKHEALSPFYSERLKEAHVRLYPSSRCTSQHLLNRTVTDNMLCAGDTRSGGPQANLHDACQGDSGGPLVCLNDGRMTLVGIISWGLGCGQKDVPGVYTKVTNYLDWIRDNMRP

CC1CNc2c(cccc2S(=O)(=O)N2C(=O)C3CC(C)CCN3C(=O)C2CCCNC(=N)N)C1 [NPI1999, (3S,6R,8R)-Bicyclo[4.4.0]-1,4-diaza-3-(3-guanidinopropyl)-4-N-(1,2,3,4-tetrahydro-3-methyl-8-quinolinesulfonyl)-8-methyl-2,5-decanedione, hydrochoride salt]
Cycloargatroban [Ki (Enzyme)/Ki (Thrombin)] vs. Argatroban [Ki (Enzyme)/Ki (Thrombin)] ([1]; enzyme = tPA): +1.2 fold | pKi ([1]; substrate Boc-L-(p-F) FPR-ANSNH-C2H5): 2.69 | CT (clotting time of whole blood) (ICR mice; 0.25 mg/kg i.v. group, before administration): 128.53 ± 27.14 | CT (clotting time of whole blood) (ICR mice; 0.25 mg/kg i.v., 0.5 h): 140.02 ± 26.40 | CT (clotting time of whole blood) (ICR mice; 0.25 mg/kg i.v., 1.5 h): 139.88 ± 30.40 | CT (clotting time of whole blood) (ICR mice; 0.5 mg/kg i.v. group, before administration): 125.53 ± 25.03 | CT (clotting time of whole blood) (ICR mice; 0.5 mg/kg i.v., 0.5 h): 172.88 ± 34.26 | CT (clotting time of whole blood) (ICR mice; 0.5 mg/kg i.v., 1.5 h): 161.76 ± 40.10 | CT (clotting time of whole blood) (ICR mice; 1 mg/kg i.v. group, before administration): 124.06 ± 28.96 | CT (clotting time of whole blood) (ICR mice; 1 mg/kg i.v., 0.5 h): 165.12 ± 30.57 | CT (clotting time of whole blood) (ICR mice; 1 mg/kg i.v., 1.5 h): 163.62 ± 44.26 | CT (clotting time of whole blood) (ICR mice; 75 mg/kg i.g. group, before administration): 126.11 ± 22.83 | CT (clotting time of whole blood) (ICR mice; 75 mg/kg i.g., 1 h): 133.11 ± 29.00 | CT (clotting time of whole blood) (ICR mice; 75 mg/kg i.g., 3.0 h): 119.39 ± 25.88 | CT (clotting time of whole blood) (ICR mice; 150 mg/kg i.g. group, before administration): 125.50 ± 23.67 | CT (clotting time of whole blood) (ICR mice; 150 mg/kg i.g., 1 h): 128.06 ± 30.03 | CT (clotting time of whole blood) (ICR mice; 150 mg/kg i.g., 3.0 h): 119.44 ± 26.01 | clotting time compared to controls (ICR mice; i.g. 75 mg/kg and 150 mg/kg, 1 h and 3 h): No significant difference | clotting time compared to controls (ICR mice; i.v. 0.5 mg/kg and 1 mg/kg, 0.5 h and 1.5 h): significantly prolonged | Thrombi (mg) Dry weight (SD rats [2]; 0.125 mg/kg i.v.): 7.62 ± 6.18 mg | Thrombi (mg) Wet weight (SD rats [2]; 0.125 mg/kg i.v.): 19.84 ± 12.17 mg | Thrombi (mg) Dry weight (SD rats [2]; 0.25 mg/kg i.v.): 6.70 ± 4.34 mg | Thrombi (mg) Wet weight (SD rats [2]; 0.25 mg/kg i.v.): 19.63 ± 12.02 mg | Thrombi (mg) Dry weight (SD rats [2]; 0.50 mg/kg i.v.): 5.81 ± 3.25 mg | Thrombi (mg) Wet weight (SD rats [2]; 0.50 mg/kg i.v.): 18.85 ± 8.61 mg | Thrombi (mg) Dry weight (SD rats [2]; 75 mg/kg intraduodenum): 11.66 ± 4.23 mg | Thrombi (mg) Wet weight (SD rats [2]; 75 mg/kg intraduodenum): 32.02 ± 19.34 mg | thrombi weights (SD rats [2]; i.v. groups (0.125, 0.25, 0.5 mg/kg)): thrombi weights were decreased | thrombi weights (SD rats [2]; intra-duodenum 75 mg/kg): no obvious effect | Infarction Area (%) (SD rats [3]; 0.125 mg/kg i.v.): 26.40 ± 7.42 % | S point in electrocardiogram (SD rats [3]; [4]): 0.33 ± 0.12 | T wave in electrocardiogram (SD rats [3]; [4]): 0.19 ± 0.15 | S point in electrocardiogram (SD rats [3]; [5]): 0.34 ± 0.19 | T wave in electrocardiogram (SD rats [3]; [5]): 0.17 ± 0.18 | S point in electrocardiogram (SD rats [3]; [6]): 0.27 ± 0.21 | T wave in electrocardiogram (SD rats [3]; [6]): 0.18 ± 0.23 | S point in electrocardiogram (SD rats [3]; [7]): 0.08 ± 0.14 | T wave in electrocardiogram (SD rats [3]; [7]): 0.02 ± 0.16 | Infarction Area (%) (SD rats [3]; 0.25 mg/kg i.v.): 25.66 ± 7.32 % | S point in electrocardiogram (SD rats [3]; [8]): 0.33 ± 0.17 | T wave in electrocardiogram (SD rats [3]; [8]): 0.19 ± 0.11 | S point in electrocardiogram (SD rats [3]; [9]): 0.42 ± 0.20 | T wave in electrocardiogram (SD rats [3]; [9]): 0.27 ± 0.13 | S point in electrocardiogram (SD rats [3]; [10]): 0.34 ± 0.22 | T wave in electrocardiogram (SD rats [3]; [10]): 0.26 ± 0.17 | S point in electrocardiogram (SD rats [3]; [11]): 0.24 ± 0.18 | T wave in electrocardiogram (SD rats [3]; [11]): 0.15 ± 0.11 | Infarction Area (%) (SD rats [3]; 75 mg/kg intraduodenum): 30.98 ± 7.41% | S point in electrocardiogram (SD rats [3]; [12]): 0.26 ± 0.13 | T wave in electrocardiogram (SD rats [3]; [12]): 0.12 ± 0.11 | S point in electrocardiogram (SD rats [3]; [13]): 0.28 ± 0.07 | T wave in electrocardiogram (SD rats [3]; [13]): 0.15 ± 0.09 | S point in electrocardiogram (SD rats [3]; [14]): 0.28 ± 0.10 | T wave in electrocardiogram (SD rats [3]; [14]): 0.18 ± 0.11 | S point in electrocardiogram (SD rats [3]; [15]): 0.18 ± 0.22 | T wave in electrocardiogram (SD rats [3]; [15]): 0.13 ± 0.11 | infarction area and serum LDH and CK (SD rats [3]; i.v. 0.25 mg/kg and 0.125 mg/kg): significantly reduced | infarction area and serum LDH and CK (SD rats [3]; intra-duodenum 75 mg/kg): no significant effects | CK (u/ml) (SD rats [3]; 0.125 mg/kg i.v.): 52.75 ± 16.25 u/ml | LDH (u/ml) (SD rats [3]; 0.125 mg/kg i.v.): 6254.1 ± 220.1 u/ml | CK (u/ml) (SD rats [3]; 0.25 mg/kg i.v.): 56.52 ± 14.48 u/ml | LDH (u/ml) (SD rats [3]; 0.25 mg/kg i.v.): 6125.7 ± 385.5 u/ml | CK (u/ml) (SD rats [3]; 75 mg/kg intraduodenum): 53.90 ± 20.60 u/ml | LDH (u/ml) (SD rats [3]; 75 mg/kg intraduodenum): 6393.3 ± 308.7 u/ml

Source: patent US20050096323A1, “Diketopiperazine derivatives to inhibit thrombin” (NovoScience Pharma Inc., priority 1999, published 2005)
